What was measured:
KasA [1] = target: T1, KasA (Mycobacterium tuberculosis, UniProt P9WQD9); format: cell-based
KasA [2] = target: T1, KasA; format: biochemical

T1 sequence (P9WQD9 whole entry): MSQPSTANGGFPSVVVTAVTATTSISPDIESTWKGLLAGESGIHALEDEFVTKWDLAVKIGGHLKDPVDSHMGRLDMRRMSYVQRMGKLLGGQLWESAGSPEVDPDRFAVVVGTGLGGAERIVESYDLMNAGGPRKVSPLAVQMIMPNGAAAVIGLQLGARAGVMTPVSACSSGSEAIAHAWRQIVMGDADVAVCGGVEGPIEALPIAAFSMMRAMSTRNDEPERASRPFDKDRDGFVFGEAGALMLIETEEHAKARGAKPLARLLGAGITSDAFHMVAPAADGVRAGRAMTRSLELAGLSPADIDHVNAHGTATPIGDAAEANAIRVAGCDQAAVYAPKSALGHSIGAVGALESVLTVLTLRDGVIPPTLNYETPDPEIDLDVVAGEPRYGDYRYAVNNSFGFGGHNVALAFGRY

CCCCS(=O)(=O)Nc1ccc2cnn(CCCN)c2c1 [compound 1, tagged analogue (1)]
bead-immobilized probe captures KasA from M. bovis BCG extract, competed by free (KasA [1]): only three proteins were efficiently competed off the beads by excess GSK3011724A: KasA

CCCCS(=O)(=O)N(C)c1ccc2cnn(C)c2c1 [compound 2, inactive analogue 2]
Kd (KasA [2]): 4.5 µM

From paper PMC5025758 (Nature Communications, 2016)
